Experimental data published in US20100311035A1, “Preservation solution for organs and biological tissues” (priority 2005, published 2010).

What was measured:
[1] = tested on: Sprague-Dawley rat kidneys; test: Cold storage of rat kidneys for 24 hours, transplantation, post-transplant serum creatinine; type: in vivo; details: component(s) added to Viaspan; kidneys preserved under static conditions for 24 hours at 4° C, then transplanted; serum creatinine measured hourly for 6 hours; control VIASP solution; FIG. 1
Description: Sprague-Dawley rat kidneys were recovered in the normal fashion and were exsanguinated and cooled to 4° C. Experimental components were added to the solution to test for improvements in post-transplant function (indicated by serum creatinine levels). Seven different solutions were prepared for comparison according to Table 1. […] The kidneys were preserved under static conditions for 24 hours with the respective solutions, and transplanted into recipient animals. Post-transplant serum creatinine (S. CREAT) was measured hourly for 6 hours.

Rat kidneys = test: Machine perfusion of rat kidneys for 24 hours, transplantation, post-transplant serum creatinine; type: in vivo; details: component(s) added to Belzer solution; kidneys preserved under machine perfusion for 24 hours, then transplanted; serum creatinine measured hourly for 6 hours; control BELZ solution; FIG. 2
Description: Rat kidneys were recovered as above. Seven different solutions were prepared for comparison according to Table 2. […] The kidneys were preserved under machine perfusion for 24 hours with the respective solutions, and transplanted into recipient animals. Post-transplant serum creatinine (S. CREAT) was measured hourly for 6 hours.

Structure (SMILES)	improvement in post-transplant function (indicated by serum creatinine levels) compared to the control [1]	improvement in post-transplant function (serum creatinine) compared to the control (Rat kidneys)
O=[N+]([O-])OCC(CO[N+](=O)[O-])O[N+](=O)[O-] [nitroglycerin]	Minimal, but statistically insignificant improvements	Minimal, but statistically insignificant improvements
CC(=O)N[C@@H](CS)C(=O)O [N-acetylcystein]	Minimal, but statistically insignificant improvements	Minimal, but statistically insignificant improvements
N=C(N)NCCC[C@H](N)C(=O)O [L-arginine]	Minimal, but statistically insignificant improvements	Minimal, but statistically insignificant improvements
CCCCC[C@H](O)/C=C/[C@H]1[C@H](O)CC(=O)[C@@H]1CCCCCCC(=O)O [prostaglandin E1]	Minimal, but statistically insignificant improvements	Minimal, but statistically insignificant improvements
